Assay results reported in patent US4002530A, “6-Aminopenicillanic acid derivative” (Recherche et Industrie Therapeutiques (R.I.T.), priority 1975, dated 1977).
In brackets after ≈: the same amount, converted by molar mass. Where a name gives a salt, the structure may show the parent alone. Read-outs that look alike come from different tables or passages of the source.

Legend:
[1] = tested on: Gram-positive and Gram-negative bacteria; test: inhibitory activity against growth of bacteria; format: cell-based; settings: for antibacterial activity relative to another RIT 2214 form: compared with the RIT 2214 form named in the sentence; for inhibitory activity against the growth of bacteria: Gram-positive and Gram-negative bacteria
Description: (§1) Antibiotic RIT D-2214 has been tested in form of the mono ammonium salt in position 3 of the penam nucleus and, for that reason, is herein below charcterized as this monoammonium salt.
(§2) The inhibitory levels were determined by the broth dilution test. A series of tubes containing varied concentrations of the monoammonium salt of antibiotic RIT D-2214 were inoculated with the test organism to determine the minimum concentration of the ammonium salt of antibiotic RIT D-2214 in mcg/ml. in the broth substrate which inhibited organism growth for a period of about twenty hours at 35° C.

[2] = in vivo; set-up: species or system mice; settings: mouse, sc, 20 mg/kg
Source text: (§3) Plasma samples were adequately diluted with sterile water and assayed according to the usual agar diffusion method, using Bacillus subtilis ATCC 6633 as the test organism.

[3] = tested on: Corynebacterium xerosis; test: broth dilution test, minimum inhibitory concentration; format: cell-based; settings: about 20 hours at 35° C, tested as monoammonium salt
[4] = tested on: E. coli Pen. resistant; test: as above; format: cell-based; settings: Escherichia coli, penicillin resistant, about 20 hours at 35° C, tested as monoammonium salt
[5] = tested on: Pseudomonas aeruginosa; test: as above; format: cell-based; settings: about 20 hours at 35° C, tested as monoammonium salt
[6] = tested on: Brucella abortus; test: microbe, parasite or virus in culture; format: cell-based; settings: 20 h, read-out: Minimum Inhibitory concentration
[7] = in vivo; set-up: species or system rats; settings: rat, sc, 20 mg/kg
Source text: as §3

[8] = tested on: Bacillus subtilis; test: broth dilution test, minimum inhibitory concentration; format: cell-based; settings: about 20 hours at 35° C, tested as monoammonium salt
[9] = tested on: Staphylococcus aureus Pen.resist.; test: as above; format: cell-based; settings: penicillin resistant, about 20 hours at 35° C, tested as monoammonium salt
[10] = tested on: Klebsiella pneumoniae SK&F 4200; test: mice protection test; format: in vivo; settings: 72 h, one hour after intravenous infection, observed 3 days, read-out: ED50 (total dose required to protect 50% of the infected mice)
Description: (§4) Comparative trials with ampicillin were performed in vivo according to the usual mice protection test procedure. The test compound was administered in graded dilutions to mice either subcutaneously (s.c.) in water or orally (or.) in combination with calcium carbonate one hour after intravenous infection with uniformly lethal doses of the test organism.

[11] = tested on: Salmonella enteritidis 24; test: mice protection test; format: in vivo; settings: Salmonella enterica, sc, 72 h, s.c., one hour after intravenous infection, observed 3 days, read-out: ED50 (total dose required to protect 50% of the infected mice)
Description: as §4

[12] = tested on: Shigella flexneri 25; test: mice protection test; format: in vivo; settings: Shigella flexneri, 25, sc, 72 h; s.c., one hour after intravenous infection, observed 3 days; read-out: ED50 (total dose required to protect 50% of the infected mice)
Description: as §4

[13] = tested on: Proteus mirabilis 11; test: mice protection test; format: in vivo; settings: Proteus mirabilis, 11, sc, 72 h; s.c., one hour after intravenous infection, observed 3 days; read-out: ED50 (total dose required to protect 50% of the infected mice)
Description: as §4

[14] = tested on: Staphylococcus aureus 663; test: mice protection test; format: in vivo; settings: Staphylococcus aureus, 663, sc, 72 h; s.c., one hour after intravenous infection, observed 3 days; read-out: ED50 (total dose required to protect 50% of the infected mice)
Description: as §4

[15] = tested on: Escherichia coli 47; test: mice protection test; format: in vivo; settings: Escherichia coli, 47, sc, 72 h; s.c., one hour after intravenous infection, observed 3 days; read-out: ED50 (total dose required to protect 50% of the infected mice)
Description: as §4

[16] = tested on: Salmonella panama 20; test: mice protection test; format: in vivo; settings: Salmonella enterica, 20, sc, 72 h; s.c., one hour after intravenous infection, observed 3 days; read-out: ED50 (total dose required to protect 50% of the infected mice)
Description: as §4

[17] = tested on: Escherichia coli 9; test: mice protection test; format: in vivo; settings: Escherichia coli, 9, sc, 72 h; s.c., one hour after intravenous infection, observed 3 days; read-out: ED50 (total dose required to protect 50% of the infected mice)
Description: as §4

[18] = tested on: Salmonella brandebourg 22; test: mice protection test; format: in vivo; settings: Salmonella, 22, sc, 72 h; s.c., one hour after intravenous infection, observed 3 days; read-out: ED50 (total dose required to protect 50% of the infected mice)
Description: as §4

[19] = tested on: Vibrio parahaemoliticus 194; test: mice protection test; format: in vivo; settings: Vibrio, 194, 72 h; oral with calcium carbonate, one hour after intravenous infection, observed 3 days; read-out: ED50 (total dose required to protect 50% of the infected mice)
Description: as §4

[20] = tested on: Alcaligenes faecalis; test: broth dilution test, minimum inhibitory concentration; format: cell-based; settings: about 20 hours at 35° C, tested as monoammonium salt
[21] = tested on: Proteus morganii; test: as above; format: cell-based; settings: Morganella morganii, about 20 hours at 35° C, tested as monoammonium salt
[22] = tested on: Salmonella typhimurium; test: as above; format: cell-based; settings: Salmonella enterica, about 20 hours at 35° C, tested as monoammonium salt
[23] = tested on: Salmonella meleagridis; test: as above; format: cell-based; settings: about 20 hours at 35° C, tested as monoammonium salt
[24] = tested on: Bordetella bronchiseptica; test: as above; format: cell-based; settings: about 20 hours at 35° C, tested as monoammonium salt
[25] = physchem; format: physicochemical; settings: reconstituted gastric juice, pH 1.3
Source text: Antibiotic RIT D-2214 can be colorimetrically assayed by the classical hydroxylamine method of penicillin assay. […] Recoveries were estimated according to the hydroxylamine assay method.

[26] = tested on: Klebsiella pneumoniae; test: broth dilution test, minimum inhibitory concentration; format: cell-based; settings: about 20 hours at 35° C, tested as monoammonium salt
[27] = in vivo; set-up: species or system dogs; settings: dog, sc, 20 mg/kg
Source text: as §3

[28] = tested on: Shigella sonnei; test: broth dilution test, minimum inhibitory concentration; format: cell-based; settings: about 20 hours at 35° C, tested as monoammonium salt
Description: as §1, §2

[29] = tested on: Salmonella panama; test: as above; format: cell-based; settings: Salmonella enterica, about 20 hours at 35° C, tested as monoammonium salt
[30] = tested on: Salmonella anatum; test: as above; format: cell-based; settings: Salmonella enterica, about 20 hours at 35° C, tested as monoammonium salt
[31] = tested on: Salmonella typhi; test: as above; format: cell-based; settings: Salmonella enterica, 20 h, read-out: Minimum Inhibitory concentration

CC1(C)S[C@@H]2[C@H](NC(=O)CSCC(N)C(=O)O)C(=O)N2[C@H]1C(=O)O (mixture of isomers) [RIT DL-2214]
antibacterial activity relative to another RIT 2214 form [1]: approximately half

CC1(C)S[C@@H]2[C@H](NC(=O)CSC[C@@H](N)C(=O)O)C(=O)N2[C@H]1C(=O)O [monoammonium salt of antibiotic RIT D-2214]
inhibitory activity against the growth of bacteria [1]: strong activity

CC1(C)S[C@@H]2[C@H](NC(=O)CSC[C@H](N)C(=O)O)C(=O)N2[C@H]1C(=O)O
inhibitory activity against the growth of bacteria [1]: active against Grampositive and negative bacteria | antibacterial activity relative to another RIT 2214 form [1]: less than the monoammonium salt of RIT D-2214

CC1(C)S[C@@H]2[C@H](NC(=O)[C@H](N)c3ccccc3)C(=O)N2[C@H]1C(=O)O [Ampicillin, ampicillin, reference compound]
concentration at 5 min [2]: 6500 ng/mL | concentration at 0.25 h [2]: 9000 ng/mL | concentration at 0.5 h [2]: 3500 ng/mL | concentration at 1 h [2]: 1000 ng/mL | MIC [3]: 0.1 µg/mL | MIC [4]: 80 µg/mL | MIC [5]: 80 µg/mL | MIC [6]: 0.6 µg/mL (≈ 1.72 µM) | concentration at 5 min [7]: 7000 ng/mL | concentration at 0.25 h [7]: 13000 ng/mL | concentration at 1 h [7]: 5000 ng/mL | concentration at 2 h [7]: 2500 ng/mL | MIC [8]: 0.3 µg/mL | MIC [9]: 20 µg/mL | ED50 ([10]; oral with calcium carbonate): 50.4 mg/kg | ED50 ([10]; sc, s.c.): 36.7 mg/kg | ED50 [11]: 55.6 mg/kg | ED50 [12]: > 100 mg/kg | ED50 [13]: 14.8 mg/kg | ED50 [14]: < 11 mg/kg | ED50 [15]: 23.6 mg/kg | ED50 [16]: 22 mg/kg | ED50 [17]: 11.5 mg/kg | ED50 [18]: 36.4 mg/kg | ED50 [19]: 17.9 mg/kg | MIC [20]: 1.6 µg/mL | MIC [21]: 20 µg/mL | MIC [22]: 40 µg/mL | MIC [23]: 0.6 µg/mL | MIC [24]: 0.6 µg/mL | half-life [25]: 390 min | MIC [26]: 40 µg/mL | concentration at 0.25 h [27]: 13000 ng/mL | concentration at 0.5 h [27]: 18000 ng/mL | concentration at 1 h [27]: 18000 ng/mL | concentration at 2 h [27]: 9000 ng/mL | MIC [28]: 2.5 µg/mL | MIC [29]: 2.5 µg/mL | MIC [30]: 0.6 µg/mL | MIC [31]: 0.6 µg/mL (≈ 1.72 µM)
